Measurements reported in paper PMC10614203, “Synthesis, Structure–Activity Relationships, Radiofluorination, and Biological Evaluation of [^18F]RM365, a Novel Radioligand for Imaging the Human Cannabinoid Receptor Type 2 (CB2R) in the Brain with PET” (Journal of Medicinal Chemistry, 2023).
Values joined by “and” are separate entries in the source; they are usually repeats but may differ in a detail not shown here. Equal values may be shown once.

Key:
[1] = target: T1, hCB2R (Homo sapiens, UniProt P34972); test: Homologous competition binding of [18F]RM365 / RM365 on membranes of hCB2R-CHO cells
T1 construct: host or cells: CHO cells, stably transfected
T1 sequence (P34972 whole entry): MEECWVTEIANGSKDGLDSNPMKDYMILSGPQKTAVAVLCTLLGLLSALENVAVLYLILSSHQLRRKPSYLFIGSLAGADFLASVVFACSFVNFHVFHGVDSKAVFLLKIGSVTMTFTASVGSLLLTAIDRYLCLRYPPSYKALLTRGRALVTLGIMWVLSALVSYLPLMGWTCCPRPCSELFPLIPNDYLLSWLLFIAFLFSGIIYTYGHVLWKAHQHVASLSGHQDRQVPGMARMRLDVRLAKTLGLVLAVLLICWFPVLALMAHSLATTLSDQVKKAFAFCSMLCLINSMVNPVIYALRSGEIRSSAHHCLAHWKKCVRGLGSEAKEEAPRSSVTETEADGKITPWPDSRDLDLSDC
Source text: (§1) To complement the indirect determination of the affinity of RM365 toward the CB2R in vitro, we performed a direct binding study with the radiofluorinated ligand using preparations of CHO cells stably transfected with the cloned human receptor and one spleen from a female SPRD rat expressing high levels of the receptor in the leukocytes.[12] The results of the homologous competition study shown in Figure 6 confirm the good affinity of [^18F]RM365 toward the human CB2R with a KD value of about 2 nM. […] Furthermore, the measurement signal obtained from the incubation of [^18F]RM365 with the homogenate of rat spleen was in the range of the values obtained for the nonspecific binding of the radioligand toward the preparation of CB2R-transfected CHO cells. We conclude that RM365 binds the rat CB2R with lower affinity than the human CB2R but expect no significant interactions of the radioligand with nonspecific binding sites.[82] […]
(§2) The nonspecific binding of the respective radioligand was determined by coincubation with CP55,940 (final concentration 10^–5 M). The normalized values of bound activity (% specific binding) were calculated and plotted vs the logarithm of the concentration of the respective test compound. […]

[2] = In vivo metabolism, quantification of radiometabolites by radio-HPLC in brain and plasma; set-up: species or system mouse; details: female CD-1 mice, 30 min p.i., i.v.
Procedure: The good in vitro results obtained for [^18F]RM365 justified its further evaluation in vivo, and we proceeded with the investigation of radioligand metabolism in mouse. The brain as well as blood samples were obtained from two female CD-1 mice 30 min after intravenous administration of [^18F]RM365. About 90% of the radioactivity detected in the brain samples accounted for intact radioligand (Figure 8), while in blood plasma, the fraction of the intact radioligand represented only 55% of the detected radioactivity (Figure 8B). Accordingly, the absence of a significant fraction of radiometabolites of [^18F]RM365 in the brain indicates the suitability of this radioligand for neuroimaging.
Figure 8 In vivo metabolism of [^18F]RM365. […]
The samples were further processed for subsequent radio-chromatographic analyses. […] The activities of supernatants and precipitates were measured in an γ-counter (1480 WIZARD, Fa. PerkinElmer), and the extraction efficiencies were calculated as the ratio of the radioactivity in the supernatant to the radioactivity in the original sample (supernatant + precipitate). The supernatants from both extractions were combined, concentrated at 70 °C under an argon stream up to a remaining volume of 100 μL, and subsequently analyzed by analytical radio-HPLC with a gradient system as applied in Section 5.2.2.

[3] = target: T2, rat CB2R (Rattus norvegicus, UniProt Q9QZN9); test: Homologous competition binding of [18F]RM365 / RM365 on rat spleen homogenate
T2 construct: one spleen from a female SPRD rat expressing high levels of the receptor in the leukocytes; from tissue; host or cells: rat spleen (female SPRD rat; autoradiography also described with male F433 rats)
T2 sequence (Q9QZN9 1-360): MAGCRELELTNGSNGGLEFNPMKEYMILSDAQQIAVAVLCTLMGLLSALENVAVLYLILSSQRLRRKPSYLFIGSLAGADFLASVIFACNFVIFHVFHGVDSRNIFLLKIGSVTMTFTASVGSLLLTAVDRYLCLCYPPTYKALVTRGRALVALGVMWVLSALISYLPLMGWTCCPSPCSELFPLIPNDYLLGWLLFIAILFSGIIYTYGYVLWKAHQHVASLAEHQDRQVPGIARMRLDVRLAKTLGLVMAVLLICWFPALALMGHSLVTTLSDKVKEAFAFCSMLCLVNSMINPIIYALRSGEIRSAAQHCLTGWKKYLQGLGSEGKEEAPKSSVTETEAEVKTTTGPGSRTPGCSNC
Source text: as §1, §2

## CC1(C)Cc2ccc(C#N)cc2[C@@H]1NC(=O)c1cc2cc([18F])ccc2[nH]1 [[^18F]RM365]
[1]; 0.078 nM [18F]RM365, increasing concentrations of RM365
  IC50: 2.4 nM
[1]; 0.078 nM [18F]RM365, single experiment in triplicate, KD = IC50 - concentration radioligand
  Kd: 2.32 nM and ~2 nM
[2]
  intact radioligand, fraction of radioactivity in blood plasma: 55%
[3]; rat spleen homogenate, read-out: KD for the rCB2R
  Kd: > 10000 nM
[3]; spleen of a female SPRD rat
  specific binding to rat spleen homogenates, in words: no detectable interaction
